Columns and labels:
MDA-MB-231 cells [1] = assay: CCK assay, proliferation of breast cancer cells; format: cell-based, human; conditions: MDA-MB-231, 0.1 to 16 µM, 48 hours, absorbance at 450 nm, FIG. 1
Procedure: Human breast cancer cell line MDA-MB-231 cells were plated in a 96-well plate at a density of 1 x 10^5 cells/well and cultured for 24 hours. Thereafter, the cells were treated with compound AON-MG23 of the present invention at various concentrations and cultured for 48 hours. The cells were treated with the compound of the present invention at various concentrations of 0 µM, 0.1 µM, 0.25 µM, 0.5 µM, 1 µM, 2 µM, 4 µM, 8 µM, and 16 µM. 10 µL of cell counting kit (CCK) reagent was added and allowed to react for one hour, and then the absorbance was measured at 450 nm.

[2] = system: six breast cancer cell lines (SUM149, BCX010, BT20, MDA-MB-231-LM3, CAL51, PyMT-N); assay: colony formation test; format: cell-based, human; conditions: 0.25 µM, 0.5 µM and 1 µM, 11 to 14 days, all six cell lines, FIGS. 2A to 2C
Procedure: To confirm the proliferation inhibitory effect of the compound of the present invention on breast cancer cells, a colony formation test was conducted. Specifically, six breast cancer cell lines (SUM149, BCX010, BT20, MDA-MB-231-LM3, CAL51, PyMT-N) were plated in a 6-well cell culture plate at a density of 250 or 1,000 cells per well. On the next day, the cell culture medium was removed and replaced with a cell culture medium containing compound AON-MG23 of the present invention at concentrations of 0 µM, 0.25 µM, 0.5 µM, and 1 µM. After culturing the cells for 11 to 14 days, the resulting cell colonies were stained and photographed, and then the cell colonies were counted and analyzed using Image J software.

[3] = system: four breast cancer cell lines (SUM149, BCX010, BT20, MDA-MB-231-LM3); assay: soft agar assay (tumorigenicity); format: cell-based; conditions: Homo sapiens, 336 h, 100 nM, 500 nM, 1000 nM tested, two weeks, FIGS. 3A and 3B, read-out: concentration from which tumorigenicity was inhibited
Procedure: To confirm the tumorigenicity inhibitory effect of the compound of the present invention on breast cancer cells, an […] soft agar assay was performed. Specifically, 0.5% agar or 0.7% agar was added to cell culture media diluted with the compound of the present invention at concentrations of 0 nM, 100 nM, 500 nM, and 1000 nM. 2 ml of 0.5% agar containing the compound of the present invention at various concentrations was added to a 6-well cell culture plate and solidified at room temperature. Thereafter, 1 ml of 1 x 10^4 cells of four breast cancer cell lines (SUM149, BCX010, BT20, MDA-MB-231-LM3) and 1 ml of 0.7% agar containing the compound of the present invention at various concentrations were mixed in a 1:1 ratio to prepare a 0.35% solution, and 2 ml of this solution was placed on top of the solidified 0.5% agar. The mixture was then solidified at room temperature until the upper layer was fixed, and then cells were cultured in an incubator at 37 °C and 5% CO2 for two weeks. The formed cell clones were stained and photographed, and then the cell clones were counted and analyzed using Image J software.

MDA-MB-231 cells [4] = assay: cell migration assay in SPLScar Block plates; format: cell-based; conditions: Homo sapiens, 24 hours, FIG. 4, read-out: inhibition of migration of MDA-MB-231 cells compared to the control group
Procedure: Human breast cancer cell line MDA-MB-231 cells were seeded in SPLScar Block plates (SPL LIFE SCIENCES) at a density of 7 x 10^4/well and cultured for 24 hours. […], the blocks were removed, and at the same time, compound AON-MG23 of the present invention was applied at various concentrations. Thereafter, cells were cultured in a CO2 incubator at 37 °C for 24 hours. The cells were treated with the compound of the present invention at various concentrations of 0 µM, 0.5 µM, 1 µM, 2 µM, and 4 µM. Photographs were taken before and after each culture, and the migration distance of the cells was measured using Image J software. Based on the results, the inhibition of the cell migration was analyzed.

MDA-MG231-LM3 cells = assay: Transwell membrane filter migration assay; format: cell-based, human; conditions: cells pre-treated with 0.5 µM, eight hours, FIG. 6
Procedure: Breast cancer cell line MDA-MG231-LM3 cells pre-treated with 0.5 µM of compound AON-MG23 of the present invention and cells that were not treated were prepared. […] The membrane filter seeded with the cells was placed into a 24-well plate supplemented with a cell culture medium containing fetal bovine serum and cultured for eight hours in an incubator at 37°C and 5% CO2. Cells that migrated to the bottom surface of the membrane filter were stained and photographed under a microscope, and counted and analyzed using Image J software.

MDA MB-231 cells = assay: Matrigel invasion assay (Transwell invasion chamber), 20 hours; format: cell-based, human; conditions: 0.5, 1, 2, 4 µM, FIG. 7
Procedure: Human breast cancer cell line MDA MB-231 cells were seeded at a density of 6 x 10^4 cells/well on top of a filter coated with Matrigel (Transwell invasion chamber, Corning), treated with compound AON-MG23 of the present invention (0, 0.5, 1, 2, 4 µM), and cultured in a CO2 in an incubator at 37 °C for 20 hours. After culture, cell fixation and staining were performed using the Diff-Quick stain Kit (Sysmex, Kobe, Japan). The stained cells were imaged under a microscope, and the cells were counted and statistically analyzed using Image J software.

MDA-MB-231 = assay: Matrigel invasion assay (Transwell membrane insert), 24 hours; format: cell-based, human; conditions: 0.5 µM and 1 µM, reduction dependent on concentration, FIG. 8
Procedure: Breast cancer cell line MDA-MB-231 was seeded at a density of 6 x 10^4 cells/well on top of a membrane filter coated with Matrigel(Transwell membrane insert, Corning). Thereafter, the cells were treated with compound AON-MG23 of the present invention at concentrations of 0 µM (DMSO), 0.5 µM, and 1 µM, and cultured in a CO2 incubator at 37 °C for 24 hours. After 24 hours of culture, the cells on the bottom surface of the membrane filter were stained and photographed under a microscope, and counted and analyzed using Image J software.

HCC1806 = assay: SRB assay with Bliss synergy scoring, combination with paclitaxel; format: cell-based, human; conditions: AON-MG23 combined with paclitaxel, HCC1806, five days co-treatment, score > 0 indicates a synergistic effect, FIG. 10B
Procedure: (§1) The combination effect of compound AON-MG23 of the present invention was confirmed using Bliss scoring based on the results of the sulforhodamine B assay (SRB assay). Specifically, human breast cancer cell lines SUM149 and HCC1806 were plated in a 96-well cell culture plate at a density of 1 x 10^3 cells/well. On the next day, paclitaxel, the drug to be tested for the combination effect with compound AON-MG23 of the present invention, was diluted to concentrations for testing, and cells were cultured for 24 hours. After carefully removing the cell culture medium, the cells were co-treated with AON-MG23 and paclitaxel at different concentrations and cultured for five days. […] The absorbance of the dissolved solution was measured at […] using a plate reader. The measured absorbance values were compared to the control group, converted into percentages, and saved in an Excel file format. […] The presence of a synergistic effect was evaluated according to the following criteria based on relevant literature (Bliss, C. I. (1939). The toxicity of poisons applied jointly. Annals of Applied Biology, 26(3), 585-615.): a score > 0 indicates a synergistic effect; a score = 0 indicates an independent effect; and a score < 0 indicates an antagonistic effect.

SUM149 = assay: as above; format: cell-based, human; conditions: AON-MG23 combined with paclitaxel, SUM149, five days co-treatment, score > 0 indicates a synergistic effect, FIG. 10A
Procedure: as §1

COc1cc(N2CCC(N(C)C)CC2)ccc1Nc1ncc(Cl)c(Nc2ccccc2N(C2CC2)S(C)(=O)=O)n1 [AON-MG23, N-(2-((5-chloro-2-((4-(4-(dimethylamino)piperidin-1-yl)-2-methoxyphenyl)amino)pyrimidin-4-yl)amino)phenyl)-N-cyclopropylmethanesulfonamide]
proliferation of breast cancer cells (MDA-MB-231 cells [1]): inhibited | cell colony formation [2]: inhibited | minimal effective concentration [3]: ≥ 0.1 µM | inhibition at 0.5 µM (MDA-MB-231 cells [4]): 50% | cell migration compared to the untreated group (MDA-MG231-LM3 cells): inhibited | degree of penetration into Matrigel compared to the untreated control group (MDA MB-231 cells): reduced degree of penetration into Matrigel | degree of penetration into Matrigel compared to the untreated control group (MDA-MB-231): reduced degree of penetration into Matrigel | Bliss synergy scoring (HCC1806): 9.249 points | Bliss synergy scoring (SUM149): 18.743 points

Reference: patent publication EP4813376A1, “PHARMACEUTICAL COMPOSITION FOR PREVENTION OR TREATMENT OF BREAST CANCER” (Astrion Inc., priority 2023, dated 2025)
